{
  "source": "patent US20230301924A1",
  "about": "“PHARMACEUTICAL FORMULATION” (Janssen Pharmaceuticals, Inc., priority 2020, published 2023)",
  "assay_type_in_all_cases": "physicochemical",
  "key": {"[1]": {"experiment": "Solubility test in TPGS with different ratios of PEG1000", "description": "About 0.2 g of compound (a) was weighed into 1.5 mL HPLC vials, 0.6 g of molten TPGS, TPGS with 5%, 10% or 15% PEG1000 (in w/w of TPGS) were then added and kept stirring at 45° C. at 700 rpm. Additionally to each of these mixtures, 100 ppm of Ascorbic Palmitate were added. After stirring for 24 hours, they were transferred into filter centrifugal tube and centrifuged at 40° C. for 5 minutes at 14000 rpm rate. The solutions in the bottom of filter centrifugal tube were weighed into 25 mL volumetric flasks (about 10-20 mg), diluent was added ACN:H2O=1:1 v/v, ultrasonicated for 10 min and more diluent was added to scale and analyze by UPLC (see method above). The solid residues after solubility test were collected and analyzed by XRPD (the solid residue in TPGS and TPGS with 5% PEG1000 were washed with water at 50° C. 3 times and analyzed by XRPD).\nSolubility test of compound (a) in TPGS with different ratio of PEG1000 after stirring at 45° C. for 96 hours were further tested to determine the effect of time on solubility and XRPD pattern."}, "[2]": {"experiment": "Solubility test in PEG1000", "description": "About 0.5 g of compound (a) was weighed into 4 mL glass vials, 1.5 g of molten PEG1000 were then added and kept stirring at 40° C. or 50° C. at 700 rpm. After stirring for 24 hours, the obtained mixtures were transferred into a filter centrifugal tube and centrifuged at 40° C. for 1 minute at 14000 rpm rate. The solution in the bottom of filter centrifugal tube wad weighed into 25 mL volumetric flasks (about 25 mg), diluent was added ACN:H2O=1:1 v/v, ultrasonicated for 10 min and more diluent was added to scale and analyzed by UPLC (see method above)."}, "[3]": {"experiment": "Solubility test in Gelucire 50/13 and PEG 3350", "description": "Compound (a) was weighed into a 1.5 mL HPLC vial, added about 1 mL or 880 mg of molten media, then kept stirring at different temperature at 700 rpm (see details in Table 1). Compound (a) was added until a suspension was visually observable. After stirring for about 24 hours, the obtained mixtures were quickly transferred to a filter centrifugal tube and centrifuged at 40° C. for 1 minute at 14000 rpm rate. The solution in the bottom of the filter centrifugal tube was weighed into 10 mL or 25 mL volumetric flasks (about 15-20 mg), diluents were added (ACN: water=1:1 v/v for PEG3350 or MeOH:water=8:2 v/v for Gelucire 50/13), ultrasonicated for 10 min and more diluent was added to scale and analyzed by UPLC (see method above)."}, "[4]": {"experiment": "Solubility of compound (a) in mixed excipients (TPGS with Precirol ATO 5, PEG6000 or PEG3350)", "description": "The solubility of these mixed excipients with compound (a) was then tested. Different ratios of the excipients were mixed at different temperatures (Table 6); then compound (a) was added and the mixtures stirred at the same temperature. The samples were analyzed by UPLC (see method above)."}},
  "data": [
    {"smiles": "COc1cc(NC(C(=O)c2c[nH]c3ccc(OC(F)(F)F)cc23)c2ccc(Cl)cc2OC)cc(S(C)(=O)=O)c1", "note": "(centres unmarked) [compound (a)]", "values": [
      {"measurement": "Solubility", "setting": "[1]; in TPGS + 5 vol % PEG1000 + 100 ppm AP, 45° C., 96 h", "value": 186, "unit": "mg/g"},
      {"measurement": "Solubility", "setting": "[1]; in TPGS + 5 vol % PEG1000, 45° C., 24 h", "value": 263, "unit": "mg/g"},
      {"measurement": "Solubility", "setting": "[1]; in TPGS + 10 vol % PEG1000 + 100 ppm AP, 45° C., 96 h", "value": 157, "unit": "mg/g"},
      {"measurement": "Solubility", "setting": "[1]; in TPGS + 10 vol % PEG1000, 45° C., 24 h", "value": 206, "unit": "mg/g"},
      {"measurement": "Solubility", "setting": "[1]; in TPGS + 15 vol % PEG1000 + 100 ppm AP, 45° C., 96 h", "value": 144, "unit": "mg/g"},
      {"measurement": "Solubility", "setting": "[1]; in TPGS + 15 vol % PEG1000, 45° C., 24 h", "value": 179, "unit": "mg/g"},
      {"measurement": "Solubility", "setting": "[1]; in TPGS + 100 ppm AP, 45° C., 96 h", "value": 225, "unit": "mg/g"},
      {"measurement": "Solubility", "setting": "[1]; in TPGS, 45° C., 24 h", "value": 274, "unit": "mg/g"},
      {"measurement": "Solubility", "setting": "[2]; in PEG1000", "value": "about 140 mg/g"},
      {"measurement": "Solubility", "setting": "[2]; in PEG 1000, 40° C., 700 rpm for 24 hours", "value": 141, "unit": "mg/g"},
      {"measurement": "Solubility", "setting": "[2]; in PEG 1000, 50° C., 700 rpm for 24 hours", "value": 146, "unit": "mg/g"},
      {"measurement": "Solubility", "setting": "[3]; in Gelucire 50/13, 55° C., 700 rpm for 24 hours", "value": 141, "unit": "mg/g"},
      {"measurement": "Solubility", "setting": "[3]; in Gelucire 50/13, 60° C., 700 rpm for 24 hours", "value": 148, "unit": "mg/g"},
      {"measurement": "Solubility", "setting": "[3]; in Gelucire 50/13 after stirring at 55° C. and 60° C. for 24 hours", "value": "higher than 120 mg/g"},
      {"measurement": "Solubility", "setting": "[3]; in PEG 3350, 60° C., 700 rpm for 24 hours", "value": 112, "unit": "mg/g"},
      {"measurement": "Solubility", "setting": "[3]; in PEG 3350, 65° C., 700 rpm for 24 hours", "value": 121, "unit": "mg/g"},
      {"measurement": "Solubility", "setting": "[3]; in PEG 3350 at both 60° C. and 65° C.", "value": "≤ 120", "unit": "mg/g"},
      {"measurement": "Solubility", "setting": "[4]; in TPGS:ATO5 90:10 w/w, 60° C.", "value": 216.1, "unit": "mg/g"},
      {"measurement": "Solubility", "setting": "[4]; in TPGS:ATO5 90:10 w/w, 65° C.", "value": 219.0, "unit": "mg/g"},
      {"measurement": "Solubility", "setting": "[4]; in TPGS:ATO5 95:5 w/w, 60° C.", "value": 270.0, "unit": "mg/g"},
      {"measurement": "Solubility", "setting": "[4]; in TPGS:ATO5 95:5 w/w, 65° C.", "value": 295.5, "unit": "mg/g"},
      {"measurement": "Solubility", "setting": "[4]; in TPGS:ATO5 98:2 w/w, 60° C.", "value": 228.2, "unit": "mg/g"},
      {"measurement": "Solubility", "setting": "[4]; in TPGS:ATO5 98:2 w/w, 65° C.", "value": 248.5, "unit": "mg/g"},
      {"measurement": "Solubility", "setting": "[4]; in TPGS:PEG3350 90:10 w/w, 55° C.", "value": 71.0, "unit": "mg/g"},
      {"measurement": "Solubility", "setting": "[4]; in TPGS:PEG3350 90:10 w/w, 60° C.", "value": 76.2, "unit": "mg/g"},
      {"measurement": "Solubility", "setting": "[4]; in TPGS:PEG6000 90:10 w/w, 55° C.", "value": 60.8, "unit": "mg/g"},
      {"measurement": "Solubility", "setting": "[4]; in TPGS:PEG6000 90:10 w/w, 60° C.", "value": 66.6, "unit": "mg/g"},
      {"measurement": "Solubility", "setting": "[4]; in TPGS:PEG6000 95:5 w/w, 55° C.", "value": 81.0, "unit": "mg/g"},
      {"measurement": "Solubility", "setting": "[4]; in TPGS:PEG6000 95:5 w/w, 60° C.", "value": 84.0, "unit": "mg/g"},
      {"measurement": "Solubility", "setting": "[4]; in TPGS:PEG6000 98:2 w/w, 55° C.", "value": 63.0, "unit": "mg/g"},
      {"measurement": "Solubility", "setting": "[4]; in TPGS:PEG6000 98:2 w/w, 60° C.", "value": 66.8, "unit": "mg/g"},
      {"measurement": "Solubility", "setting": "[4]; in the Precirol ATO 5/TPGS system", "value": "> 200", "unit": "mg/g"}
    ]}
  ]
}
